In patent US11214803B2, “Modulators of YAP1 expression” (Ionis Pharmaceuticals, Inc., priority 2019, dated 2022):
Strand notation (5' to 3'): a small letter for the sugar, then the base; units joined by * are phosphorothioate-linked, units joined directly phosphodiester-linked; [ ] holds rarer units or linkages, { } end groups; capitals alone tell only the bases. e = 2'-O-(2-methoxyethyl) (MOE); k = constrained ethyl (cEt); [5mC] = 5-methylcytosine; d = 2'-deoxy (DNA); m = 2'-O-methyl

Test system: Yap1 mRNA
Test: Antisense inhibition of human Yap1 in SNU-449 cells by modified oligonucleotides, single dose (Example 5, RTS36584)
Assay type: cell-based
Description: Modified oligonucleotides with additional chemistry modifications were designed to target a Yap1 nucleic acid and were tested for their effect on Yap1 mRNA level in SNU-449 cells. The modified oligonucleotides were tested in a series of experiments that had similar culture conditions. Cultured SNU-449 cells at a density of 10,000 cells per well were treated using free uptake with 2,000 nM of modified oligonucleotide. After a treatment period of approximately 48 hours, RNA was isolated from the cells and Yap1 mRNA levels were measured by quantitative real-time RTPCR. Human primer probe set RTS36584 was used to measure mRNA levels. Yap1 mRNA levels were normalized to total RNA content, as measured by RIBOGREEN®. Results are presented in the tables below as percent control of the amount of Yap1 mRNA relative to untreated control cells (% UTC). The modified oligonucleotides with percent control values marked with an asterisk (*) target the amplicon region of the primer probe set. Additional assays may be used to measure the potency and efficacy of the modified oligonucleotides targeting the amplicon region.
Several different chemistry modifications were tested, which are specified in the Chemistry Notation column of the tables below, wherein the notation “d” refers to a 2′-deoxyribose sugar, the notation “s” refers to a phosphorothioate (P═S) internucleoside linkage, the notation “k” refers to a cEt modified sugar, the notation “y” refers to a 2′-O-methyl ribose sugar, the notation “e” refers to a MOE modified sugar, and the notation “^mC” refers to a 5-methylcytosine.
“Start site” indicates the 5′-most nucleoside to which the gapmer is targeted in the human gene sequence. “Stop site” indicates the 3′-most nucleoside to which the gapmer is targeted human gene sequence. […] Activity of the modified oligonucleotide may be defined in a different experiment.

[1] = Table 45, Yap1 mRNA as percent of untreated control, SNU-449 cells, single dose
[2] = Table 52, Yap1 mRNA, modified oligonucleotides targeting SEQ ID NO: 1 and 2
[3] = Table 42 (separate experiment), SNU-449 cells, 10,000 cells per well, free uptake, 2,000 nM modified oligonucleotide, approximately 48 hours, RTS36584, normalized to RIBOGREEN, Yap1 mRNA relative to untreated control cells
[4] = Table 46, Yap1 mRNA as percent of untreated control, SNU-449 cells, single dose
[5] = Table 44 experiment, SNU-449 cells, 10,000 cells per well, free uptake, 2,000 nM, approximately 48 hours, RTS36584, Yap1 mRNA normalized to RIBOGREEN, relative to untreated control cells
[6] = Yap1 mRNA, percent of untreated control, modified oligonucleotides targeting SEQ ID NO: 1 and 2, Table 47
[7] = Table 48, Yap1 mRNA level relative to untreated control, modified oligonucleotides targeting SEQ ID NO.: 1 and 2
[8] = Table 50, Yap1 mRNA remaining as percent of untreated control (UT), SNU-449 cells, single dose
[9] = Table 43 experiment, SNU-449 cells, 10,000 cells per well, free uptake, 2,000 nM, approximately 48 hours, RTS36584, Yap1 mRNA normalized to RIBOGREEN, relative to untreated control cells
[10] = Table 41, SNU-449 cells, 10,000 cells per well, free uptake, 2,000 nM modified oligonucleotide, approximately 48 hours, RTS36584, normalized to RIBOGREEN, Yap1 mRNA relative to untreated control cells
[11] = Table 40 (separate experiment), SNU-449 cells, 10,000 cells per well, free uptake, 2,000 nM oligonucleotide, approx. 48 hours, RTS36584, normalized to RIBOGREEN, Yap1 mRNA relative to untreated control
[12] = Table 51, Yap1 mRNA remaining as percent of untreated control (UT), SNU-449 cells, single dose

1198918 (kG*k[5mC]*dA*d[5mC]*dT*dT*dT*dT*dA*d[5mC]*dA*kT*dT*kA*dG*kG) [Compound 1198918]
YAP1 (% UTC) [1]: 27 % UTC

1200865 (kT*kA*kA*dG*dG*mU*dT*dT*d[5mC]*d[5mC]*d[5mC]*dA*dG*kA*kT*kT; antisense) [Compound 1200865]
YAP1 (% UT) [2]: 54 % UT

1198701 (kT*kT*dA*dA*dA*dG*dT*dG*dT*dA*dT*dG*kT*e[5mC]*kA*eG; antisense) [Compound 1198701]
YAP1 (% UTC) [3]: 46 % UTC

1200809 (k[5mC]*kA*k[5mC]*dT*dG*mA*dG*dG*dT*dA*dT*dA*dA*k[5mC]*kT*kG; antisense) [Compound 1200809]
YAP1 (% UT) [2]: 69 % UT

1198870 (kT*kA*dT*dG*dT*dA*dA*dT*dA*dT*dT*kG*e[5mC]*kA*eA*kT; antisense) [Compound 1198870]
YAP1 (% UT) [4]: 86 % UT

1198899 (kA*kG*dT*dA*dT*dG*dT*dG*dG*d[5mC]*dA*kA*dT*kA*dA*kT) [Compound 1198899]
YAP1 (% UTC) [5]: 75 % UTC

1198840 (kG*k[5mC]*dT*dT*dT*dG*dG*dA*dA*dG*dA*kT*e[5mC]*kT*eG*kA; antisense) [Compound 1198840]
YAP1 (% UT) [4]: 26 % UT

1197190 (antisense k[5mC]*kT*kT*dT*dG*dG*dA*dA*dG*dA*dT*d[5mC]*dT*kG*kA*kA) [Compound 1197190]
YAP1 (% UT) [6]: 57 % UT

1198293 (kA*kG*kT*dA*dT*dG*dT*dG*dG*d[5mC]*dA*dA*kT*eA*kA*eT; antisense) [Compound 1198293]
YAP1 (% UT) [7]: 25 % UT

1198560 (antisense kT*kA*kT*dA*dA*d[5mC]*dT*dG*dG*dG*d[5mC]*dA*kA*kA*kT*eT) [Compound 1198560]
YAP1 (% UT) [8]: 53 % UT

1198264 (kT*kA*dT*dG*dT*dA*dA*dT*dA*dT*dT*eG*e[5mC]*eA*kA*kT; antisense) [Compound 1198264]
YAP1 (% UTC) [9]: 73 % UTC

1198689 (antisense kA*kA*dT*dA*dT*dT*dG*d[5mC]*dA*dA*dT*d[5mC]*kT*eG*kT*e[5mC]) [Compound 1198689]
YAP1 (% UTC) [10]: 91 % UTC

1198722 (kA*eT*kA*dT*dG*dG*dA*dA*dA*dT*dT*dG*eT*e[5mC]*kT*k[5mC]; antisense) [Compound 1198722]
YAP1 (% UTC) [11]: 48 % UTC

1198665 (antisense kT*kG*d[5mC]*dT*dT*dT*dG*dG*dA*dA*dG*dA*kT*e[5mC]*kT*eG) [Compound 1198665]
YAP1 (% UTC) [10]: 38 % UTC

1198680 (antisense k[5mC]*kT*dT*dA*dT*dA*dT*dG*dG*dT*dT*dT*kT*eG*kT*eG) [Compound 1198680]
YAP1 (% UTC) [3]: 28 % UTC

1198818 (antisense kT*kA*dT*dT*dA*dG*dA*dG*dT*dA*dT*kG*eT*kG*eG*k[5mC]) [Compound 1198818]
YAP1 (% UT) [4]: 15 % UT

1076187 (kG*kA*kT*dT*dT*dA*dG*dG*dA*dT*dG*d[5mC]*dA*kT*kG*kG; antisense) [Compound 1076187]
YAP1 (% UT) [6]: 17 % UT

1198328 (kA*kT*kT*dT*dA*dG*dG*dA*dT*dG*d[5mC]*dA*kT*eG*kG*eT; antisense) [Compound 1198328]
YAP1 (% UT) [7]: 42 % UT

1198339 (kA*k[5mC]*kT*d[5mC]*dT*dT*dA*dT*dA*dT*dG*dG*kT*eT*kT*eT; antisense) [Compound 1198339]
YAP1 (% UT) (Table 49, Yap1 mRNA level relative to untreated control, modified oligonucleotides targeting SEQ ID NO.: 1 and 2): 25 % UT

1095483 (antisense k[5mC]*kA*d[5mC]*dT*dG*dA*dG*dG*dT*dA*dT*dA*kA*e[5mC]*kT*eG) [Compound 1095483]
YAP1 (% UTC) [3]: 101 % UTC

1197194 (antisense kT*kT*kA*dG*dG*dA*dT*dG*d[5mC]*dA*dT*dG*dG*kT*kT*kT) [Compound 1197194]
YAP1 (% UT) [6]: 37 % UT

1198478 (antisense kA*kA*d[5mC]*dA*d[5mC]*dT*dG*dA*dG*dG*dT*eA*kT*eA*kA*e[5mC]) [Compound 1198478]
YAP1 (% UTC) [5]: 60 % UTC

1198727 (kA*eT*kT*dA*dG*dA*dG*dT*dA*dT*dG*dT*eG*eG*k[5mC]*kA; antisense) [Compound 1198727]
YAP1 (% UTC) [11]: 19 % UTC

1200843 (kA*k[5mC]*kT*d[5mC]*dT*mU*dA*dT*dA*dT*dG*dG*dT*kT*kT*kT; antisense) [Compound 1200843]
YAP1 (% UT) [2]: 46 % UT

1197304 (k[5mC]*kT*k[5mC]*dT*mU*dA*dT*dA*dT*dG*dG*dT*dT*kT*kT*kG; antisense) [Compound 1197304]
YAP1 (% UT) [12]: 45 % UT

1198935 (kG*kA*dT*dT*dT*dA*dG*dG*dA*dT*dG*k[5mC]*dA*kT*dG*kG; antisense) [Compound 1198935]
YAP1 (% UTC) [1]: 18 % UTC

1197311 (kT*kT*kT*dA*mU*dG*dT*dA*dA*dT*dA*dT*dT*kG*k[5mC]*kA; antisense) [Compound 1197311]
YAP1 (% UT) [12]: 27 % UT

1198211 (kA*kT*dT*dA*dG*dA*dG*dT*dA*dT*dG*eT*eG*eG*k[5mC]*kA; antisense) [Compound 1198211]
YAP1 (% UTC) [3]: 19 % UTC

1198224 (kA*k[5mC]*dT*dT*dT*dT*dA*d[5mC]*dA*dT*dT*eA*eG*eG*kA*kA) [Compound 1198224]
YAP1 (% UTC) [3]: 74 % UTC

1198742 (kT*eT*kT*dT*dA*d[5mC]*dA*dT*dT*dA*dG*dG*eA*eA*k[5mC]*kA; antisense) [Compound 1198742]
YAP1 (% UTC) [11]: 143 % UTC

1200855 (kT*kT*kT*dA*dT*mG*dT*dA*dA*dT*dA*dT*dT*kG*k[5mC]*kA; antisense) [Compound 1200855]
YAP1 (% UT) [2]: 56 % UT

1095621 (antisense kT*kG*dA*dG*dG*dT*dA*dT*dA*dA*d[5mC]*eT*kG*eG*kG*e[5mC]) [Compound 1095621]
YAP1 (% UTC) [5]: 22 % UTC

1198374 (kG*dA*dA*dA*dT*dT*dG*dT*d[5mC]*dT*d[5mC]*kA*eT*kG*e[5mC]*k[5mC]; antisense) [Compound 1198374]
YAP1 (% UTC) (Table 39, SNU-449 cells, 10,000 cells per well, free uptake, 2,000 nM oligonucleotide, approx. 48 hours, RTS36584, normalized to RIBOGREEN, Yap1 mRNA relative to untreated control): 24 % UTC

1200867 (kA*kA*kG*dT*dA*mA*dG*dG*dT*dT*dT*d[5mC]*d[5mC]*k[5mC]*kA*kG; antisense) [Compound 1200867]
YAP1 (% UT) [2]: 38 % UT

1198682 (antisense k[5mC]*kT*d[5mC]*dT*dT*dA*dT*dA*dT*dG*dG*dT*kT*eT*kT*eG) [Compound 1198682]
YAP1 (% UTC) [3]: 25 % UTC

1095593 (antisense kT*kG*dA*dG*dG*dT*dA*dT*dA*dA*d[5mC]*eT*eG*eG*kG*k[5mC]) [Compound 1095593]
YAP1 (% UTC) [9]: 16 % UTC

1197283 (kG*kA*kA*dA*mU*dT*dG*dT*d[5mC]*dT*d[5mC]*dA*dT*kG*k[5mC]*k[5mC]; antisense) [Compound 1197283]
YAP1 (% UT) [8]: 29 % UT

1198670 (antisense kT*kT*dA*dG*dG*dA*dT*dG*d[5mC]*dA*dT*dG*kG*eT*kT*eT) [Compound 1198670]
YAP1 (% UTC) [10]: 55 % UTC

1198471 (antisense kA*kT*dA*dT*dT*dA*dG*dA*dG*dT*dA*eT*kG*eT*kG*eG) [Compound 1198471]
YAP1 (% UTC) [9]: 21 % UTC

1198911 (kG*kA*dG*dG*dT*dA*dT*dA*dA*d[5mC]*dT*kG*dG*kG*d[5mC]*kA; antisense) [Compound 1198911]
YAP1 (% UTC) [1]: 26 % UTC
